Source: paper PMC6600181, “Reversal of MK-801-Induced Disruptions in Social Interactions and Working Memory with Simultaneous Administration of LY487379 and VU152100 in Mice” (International Journal of Molecular Sciences, 2019)

Columns and labels:
[1] = test system: MK-801-treated mice; test: Social interaction test (MK-801-induced disruptions); format: in vivo, mice (male CD1); settings: for treatment of deficits in social interactions induced by prolonged MK-801: compounds acutely 24 h later, 30 min before test, LY487379 0.25, 0.5, 1 mg/kg, VU152100 0.1, 0.25, 5 mg/kg; for prevention of MK-801-induced deficits in social interactions: acute, 30 min before acute MK-801
Experimental: (§1) Schedules of administration are presented graphically in Figure 1. […] Different vehicles were used throughout the study: (1) 0.9% NaCl, (2) 10% Tween 80 or (3) 10% Tween 80 containing 2% DMSO. Vehicles were administered to all animals (e.g., control mice, MK-801-treated mice) in the same schedule as drugs were administered to the drug-treated appropriate groups of mice.
(§2) Male CD1 mice (Charles River, Germany) weighing 20–25 g at the time of arrival were used in behavioural experiments. Animals were kept in standard laboratory cages T3 (265 × 420 × 180 mm, with an area of 825 cm^2), grouped at 10 mice per cage. Animals were kept under standard laboratory conditions (12:12 light:dark cycle, 21–22 °C) with free access to food and water. Animal welfare has been regularly controlled by a veterinarian and animal welfare committee. After 3–4 weeks of acclimatization and handling, the experiments began. Experimental groups consisted of 8 to 10 animals, depending on the procedure. Drugs were administered intraperitoneally (i.p.) at a volume of 10 mL/kg. Experimental assessments were performed by an observer who was blinded to treatment conditions. All procedures described herein were conducted in accordance with the European Communities Council Directive of 22 September 2010 (2010/63/EU) and Polish legislation acts concerning animal experimentation and were approved by the II Local Ethics Committee by the Institute of Pharmacology, Polish Academy of Sciences in Krakow (18/2019, 21.01.2019).
This procedure was adapted from de Moura Linck et al. and performed as described in our previous papers. Habituation and test trials were performed in a black plastic rectangular arena (40 × 30 × 35 cm) illuminated with a light intensity of 335 lux. During the habituation trial (2 consecutive days), each animal was allowed to explore the arena for 10 min. The test trial was conducted the following day, during which body-weight-matched mice (± 10% difference) from two different cages were placed into the arena for 10 min. Social interactions between the two mice were determined based on the total time spent participating in social behaviours, such as sniffing, genital investigation and chasing.

[2] = test system: MK-801-treated mice; test: Novel object recognition test (MK-801-induced disruptions); format: in vivo, mice (male CD1); settings: for treatment of deficits in novel object recognition induced by prolonged MK-801: compounds acutely 24 h later, 30 min before test, LY487379 0.1, 0.5, 1 mg/kg, VU152100 0.1, 0.25, 1 mg/kg; for prevention of MK-801-induced disruptions in object recognition: acute, 30 min before acute MK-801
Experimental: as §1, §2
This procedure was adapted from Nilsson et al. and performed as described in a variety of our previous papers. Habituation, training and test trials were performed in a black plastic rectangular arena (40 × 30 × 35 cm) illuminated with a light intensity of 335 lux. During the habituation trial (2 consecutive days), each animal was allowed to explore the arena for 10 min. The next day, during the training trial (T1), mice were placed in the arena and were presented with two identical objects (red glass cylinder; 6.5 cm in diameter and 4.5 cm high) for 5 min. After 1 h, animals were placed back into the arena for a 5 min test trial, during which one of the previously presented familiar objects was replaced with a novel object (a transparent glass elongated sphere-like object with an orange cap; 5.5 cm in diameter and 8.5 cm high). Time spent exploring (i.e., sniffing or touching) the familiar (Tfamiliar) and novel (Tnovel) objects was measured by a trained observer, and the recognition index [%] was calculated for each mouse [(Tnovel – Tfamiliar)/(Tfamiliar + Tnovel)] * 100.

[3] = test system: MK-801-treated mice; design: method as in PMID 30054675; settings: acute MK-801 model; cited from earlier work
[4] = test system: MK-801-treated mice; design: method as in PMID 30054675; settings: acute MK-801 model; cited from earlier work; remark: listed apart in the source

Row | SMILES | treatment of deficits in social interactions induced by prolonged MK-801 ([1]; MK-801 0.3 mg/kg for 7 days) | effect on social behaviour when given alone ([1]; compound alone, without MK-801) | prevention of MK-801-induced deficits in social interactions ([1]; dose 0.5 mg/kg i.p.) | prevention of MK-801-induced deficits in social interactions ([1]; doses of 1 and 3 mg/kg i.p.) | treatment of deficits in novel object recognition induced by prolonged MK-801 ([2]; MK-801 0.3 mg/kg for 7 days) | effect on learning abilities when given alone ([2]; compound alone, without MK-801) | prevention of MK-801-induced disruptions in object recognition ([2]; dose 0.5 mg/kg i.p.) | prevention of MK-801-induced disruptions in object recognition ([2]; doses of 1 and 3 mg/kg i.p.) | induction of deficits in social interactions ([1]; MK-801 0.3 mg/kg for 7 days, observed 24 h after the last injection) | induction of deficits in novel object recognition ([2]; MK-801 0.3 mg/kg for 7 days, observed 24 h after the last administration) | sub-effective dose in social interaction [3] [mg/kg] | sub-effective dose in novel object recognition [4] [mg/kg]
1 | COc1ccccc1Oc1ccc(N(Cc2cccnc2)S(=O)(=O)CC(F)(F)F)cc1 [LY487379] | treated MK-801-induced deficits at all administered doses | no effect on social behaviour | ineffective | prevented the MK-801-induced deficits | treated the MK-801-induced deficits at all administered doses | no effect on learning abilities | ineffective | prevented MK-801-induced disruptions in object recognition |  |  |  | 
2 | C[C@]12N[C@H](Cc3ccccc31)c1ccccc12 [MK-801] |  |  |  |  |  |  |  |  | induced deficits in social interactions | induced deficits in the novel object recognition paradigm |  | 
3 | COc1ccc(CNC(=O)c2sc3nc(C)cc(C)c3c2N)cc1 [VU152100] | treated MK-801-induced deficits at all administered doses |  |  |  | treated the MK-801-induced deficits at all administered doses |  |  |  |  |  | 0.5 | 0.25
